The text below walks through data of paper PMC9698340, “Discovery and SAR Study of Quinoxaline–Arylfuran Derivatives as a New Class of Antitumor Agents” (Pharmaceutics, 2022).

The subject of one assay is A549 cells. The experiment in a line: CCK-8 antiproliferation assay, A549. The conditions noted are these: Homo sapiens, 48 h; for inhibition at 20 µM: CCK-8, mean ± SD, read-out: Inhibition Rate (%) at 20 μM, A549. Type of assay: cell-based. On the procedure: (§1) Human lung carcinoma cell lines A549, human cervical cancer cell lines HeLa, human prostate cancer cell lines PC3, human colorectal carcinoma cell lines HCT116, and human liver cells L02 were purchased from the Chinese Academy of Sciences Shanghai Cell Bank (Shanghai, China). HeLa, A549, PC3, HCT116, and L02 cells were cultured in DMEM Dulbecco’s Modified Eagle Medium (DMEM; Gibco Inc., Gaithersburg, MD, USA). All cultures were provided with 10% fetal bovine serum (FBS; YHSM, Beijing, China), 100 IU/mL penicillin, and 100 μg/mL streptomycin, and cells were incubated at 37 °C in an atmosphere of 5% CO2.
(§2) Cell viability was determined using a CCK-8 kit (Apexbio, Houston, TX, USA). […] Subsequently, absorbance was assessed at 450 nm. Three duplicates were set in each group.
(§3) All synthesized quinoxalines compounds were tested for in vitro cytotoxicity against four cancer cell lines (HeLa, PC3, A549, and HCT116). The inhibitory effects of these compounds were evaluated using the CCK-8 assay after treatment with 20 μM of each compound. […] The species of phenyl substituents have a significant effect on the activity. […] By comparison, hydrophobic substitution at the phenyl ring gave derivatives with relatively low potency (QW7–8). In addition, large substituents on the phenyl ring exerted an unfavorable influence on the potency of the compounds (QW8 and QW16).
For orientation: Tetrazolium dyes change colour on reduction, which living cells bring about.

The next assay concerns PC3 cells. Briefly: CCK-8 antiproliferation assay, PC3. The format is cell-based. The conditions noted are these: Homo sapiens, PC-3, 48 h; for inhibition at 20 µM: CCK-8, mean ± SD, read-out: Inhibition Rate (%) at 20 μM, PC3. On the procedure:
as §1, §2, §3

A further assay concerns HeLa cells. Briefly: CCK-8 antiproliferation assay, HeLa. The format is cell-based. The following applies: Homo sapiens, 48 h; for inhibition at 20 µM: CCK-8, mean ± SD, read-out: Inhibition Rate (%) at 20 μM, HeLa. On the procedure:
as §1, §2, §3

A further assay deals with L02 cells. Briefly: CCK-8 cytotoxicity against normal hepatocytes L02. The following applies: Homo sapiens, 48 h, read-out: IC50 ± SD, L02 (human normal hepatocytes). The format is cell-based. How it is done: as §1, §2
To further evaluate the anticancer effect of QW12, we evaluated its cytotoxicity against four human cancer cell lines: HeLa (Human cervical tumor), PC3 (Human prostate tumor), HCT116 (Human colorectal carcinomas), and A549 (Human lung carcinoma). […] Furthermore, the IC50 values of QW12 against PC3 and HCT116 were similar to those of nifuroxazide.

For a further assay, the system named is HCT116 cells. The experiment in a line: CCK-8 antiproliferation assay, HCT116. Type of assay: cell-based. The following applies: Homo sapiens, HCT-116, 48 h; for inhibition at 20 µM: CCK-8, mean ± SD, read-out: Inhibition Rate (%) at 20 μM, HCT116. On the procedure: as §1, §2, §3
The subject of assay [1] is five melanoma cell lines, including mutant B-RAFV600E and wild-type. Also noted: method as in PMID 30691132. The following applies: range over cell lines; read-out: IC50 values against five melanoma cell lines; cited from earlier work.

For orientation: inhibition means how much of the control response was suppressed. In general, IC50 refers to the concentration at which inhibition is half-maximal.

Regarding `O=C(N/N=C/c1ccc([N+](=O)[O-])o1)c1ccc(O)cc1` [Nifuroxazide, nifuroxazide, reference compound], the inhibition at 20 µM was found to be 91.23 ± 0.04% in the assay on A549 cells, 75.29 ± 0.33% in the assay on PC3 cells, 80.38 ± 0.17% in the assay with HeLa cells and 85.31 ± 0.24% in the assay on HCT116 cells. Moreover, the IC50 with A549 cells (CCK-8, read-out: IC50 ± SD, A549) was 8.06 ± 0.03 µM; in the assay on PC3 cells (CCK-8, read-out: IC50 ± SD, PC3), 9.83 ± 0.05 µM; with HeLa cells (HeLa, CCK-8, read-out: IC50 ± SD, HeLa), 16.65 ± 0.08 µM; in the assay with L02 cells, 25.3 ± 0.31 µM; in the assay with HCT116 cells (CCK-8, read-out: IC50 ± SD, HCT116), 10.46 ± 0.04 µM.
On to `N=C(N)[Se]Cc1nc2ccccc2nc1C[Se]C(=N)N` [Compound 5], for which the IC50 in assay [1] is 0.8 to 3.8 µM.
For the molecule `COc1cc(-c2ccc(/C=N/NC(=O)c3ccccn3)o2)c(OC)cc1-c1cnc2ccccc2n1` [QW6, (E)-N’-((5-(2,5-dimethoxy-4-(quinoxalin-2-yl)phenyl)furan-2-yl)methylene)picolinohydrazide], the inhibition at 20 µM in the assay on A549 cells came out at 1.66 ± 0.61%; with PC3 cells, 0.1 ± 0.13%; in the assay on HeLa cells it was 0.53 ± 0.12%; with HCT116 cells, 16.5 ± 0.25%.
Turning to `COc1cc(-c2cc(OC)c3ccccc3c2OC)c(OC)cc1-c1ccc(/C=N/NC(=O)c2ccccn2)o1` [QW22, (E)-N’-((5-(4-(1,4-dimethoxynaphthalen-2-yl)-2,5-dimethoxyphenyl)furan-2-yl)methylene)picolinohydrazide], the inhibition at 20 µM in the assay with A549 cells turned out to be 37.5 ± 0.48%; in the assay on PC3 cells it was 0.33 ± 0.06%; with HeLa cells, 5.47 ± 0.37%; in the assay with HCT116 cells it was 6.58 ± 0.23%.
`COc1cc(-c2cc(OC)c3ccccc3c2OC)c(OC)cc1-c1ccc(/C=N/NC(=O)c2ccc(F)cc2)o1` [QW17, (E)-N’-((5-(4-(1,4-dimethoxynaphthalen-2-yl)-2,5-dimethoxyphenyl)furan-2-yl)methylene)-4-fluorobenzohydrazide]: the inhibition at 20 µM was found to be 0.44 ± 0.16% in the assay with A549 cells, 11.7 ± 0.66% in the assay on PC3 cells, 6.49 ± 0.17% in the assay with HeLa cells and 4.69 ± 0.5% with HCT116 cells.
